Numbered stars: 1 amine (or outer) side, 2 acyl side, 3 side chain; on linkers, the order of the positions; unused ones are H or OH. Bridge positions count the residues as written; N and C are the ends. Square brackets hold non-standard residues; d marks the D form. Peptide text beside a SMILES is read from it. I, II: the chains in the order shown. * marks the point of attachment. Hexanoyl(6-succinimido-3yl) = O=C1CC([*:1])C(=O)N1CCCCCC(=O)[*:2]; Pteroyl = Nc1nc2ncc(CNc3ccc(C(=O)*)cc3)nc2c(=O)[nH]1; Dolaproine = CO[C@@H]([C@@H]1CCCN1)[C@@H](C)C(=O)O; Dil = CC[C@H](C)[C@H](NC)[C@@H](CC(=O)O)OC; PABC = O=C(OCc1ccc(N[*:1])cc1)[*:2]; X1 = C[C@@H](N*)[C@@H](O)c1ccccc1; Cit = NC(=O)NCCC[C@H](N)C(=O)O; NMeV = CN[C@H](C(=O)O)C(C)C
What was measured:
[1] = system: human lung cancer cell H460; test: Cytotoxicity test of conjugate LDC10BR; type: cell-based; settings: H460, incubated 15-30 min, then 2-3 days
Protocol: (§1) Culture medium: RPMI 1640 Medium, no folic acid
(§2) 1) human nasopharyngeal cancer cell line KB, melanoma cell line A375, and human lung cancer cell H460 were incubated at 37° C., 5% CO2 in RPMI 1640 medium containing 10% fetal bovine serum, the cells were passaged every 2-3 days.
(§3) 2) human nasopharyngeal cancer cell line KB, melanoma cell line A375, and human lung cancer cell H460 were plated at 1×10^3 cells per well (96-well plate) and incubated for 8-12 h at 37° C., 5% CO2.
(§4) 3) Stock solutions of LDC conjugates or control were prepared in PBS solution. 100 μL/well of serially diluted LDC conjugates or control was added to the cells in the plate and incubated for 15-30 min at 37° C., 5% CO2. The culture medium in the wells was then removed by aspiration and the cells were incubated in fresh culture medium without conjugates (150 μL/well) for 2-3 days at 37° C., 5% CO2.
(§5) 4) CellTiter 96® Aqueous One Solution Cell Proliferation Assay (Promega) was added to each well to measure the amount of […] cells, and the plate was incubated in an incubator for 1 h at 37° C., 5% CO2.
(§6) 5) the plate was read at 490 nm on a microplate reader, and the cell survivals were compared for cells with or without the treatment of LDC conjugates. The LDC drug concentrations that are required for 50% cell death (IC50 values) were determined.

[2] = system: human nasopharyngeal cancer cell line KB; test: Cytotoxicity test of conjugate LDC10BR; type: cell-based; settings: incubated 15-30 min, then 2-3 days
Protocol: as §1, §2, §3, §4, §5, §6

melanoma cell line A375 = test: Cytotoxicity test of conjugate LDC10BR; type: cell-based; settings: A375, incubated 15-30 min, then 2-3 days
Protocol: as §1, §2, §3, §4, §5, §6

[3] = system: receptor positive cell lines; test: Cytotoxicity test of conjugate LDC10BR, comparison over cell lines; type: cell-based
Protocol: as §1, §2, §3, §4, §5, §6

[4] = system: KB (folate receptor positive cell); test: Endocytosis test of conjugate LDC10B (FITC conjugates, confocal microscope); type: cell-based, human; parameters: endocytosis after pre-incubation with free Folate: dose or concentration left out as unconfirmed
Protocol: (§7) The involved conjugates are as follows: Folate-FITC (FITC-ACP-Lys (Folate)-OH), 10B-FITC, and 10A-FITC.
as §1
(§8) 1) human nasopharyngeal cancer cell line KB, melanoma cell line A375, human lung cancer cell H460, ovarian cancer cell SKOV3, breast cancer cell line HCC1954 were incubated at 37° C., 5% CO2 in RPMI 1640 medium containing 10% fetal bovine serum, the cells were passaged every 2-3 days.
(§9) 2) human nasopharyngeal cancer cell line KB, melanoma cell line A375, human lung cancer cell H460, ovarian cancer cell SKOV3, breast cancer cell line HCC1954 were plated at 1×10^3 cells per well (96-well plate) and incubated for 8-12 h at 37° C., 5% CO2.
(§10) 3) 1 μM of FITC conjugates or control was added to the cells in the plate and incubated for 10-15 min at 37° C. The culture medium in the wells was then removed by aspiration and the cells were washed with PBS for three times.
(§11) 4) cells were then imaged with confocal microscope (brand) to visualize endocytosis.

[5] = system: A375 (folate receptor negative cell); test: as above; type: cell-based; settings: 1 μM FITC conjugate, 10-15 min at 37° C.
Protocol: as §7, §1, §8, §9, §10, §11

| Compound | IC50 [1] [µM] | IC50 [2] [µM] | IC50 (melanoma cell line A375) [µM] | cytotoxicity compared with bi-ligand conjugate LDC10B (in words) [3] | endocytosis (enters cells) ([4]; 1 μM FITC conjugate, 10-15 min at 37° C., KB cells) | endocytosis after pre-incubation with free Folate ([4]; pre-incubating KB cells with (50 fold excess of conjugate) free Folate, data not shown) | endocytosis (enters cells) [5] |
| --- | --- | --- | --- | --- | --- | --- | --- |
| CC[C@H](C)[C@@H]([C@@H](CC(=O)N1CCC[C@H]1[C@H](OC)[C@@H](C)C(=O)N[C@H](C)[C@@H](O)c1ccccc1)OC)N(C)C(=O)[C@@H](NC(=O)[C@H](C(C)C)N(C)C(=O)OCc1ccc(NC(=O)[C@H](CCCNC(N)=O)NC(=O)[C@@H](NC(=O)CCCCCN2C(=O)CC(SC[C@H](NC(=O)[C@H](CC(=O)O)NC(=O)CNC(=O)[C@H](CCCNC(=N)N)NC(=O)[C@H](CCC(=O)O)NC(=O)c3ccc(NCc4cnc5[nH]c(N)nc(=O)c5n4)cc3)C(=O)N[C@@H](CCCCN)C(=O)N[C@@H](CCC(=O)O)C(=O)N[C@@H](Cc3ccccc3)C(=O)N[C@@H](CC(C)C)C(=O)N[C@@H](Cc3c[nH]cn3)C(=O)N3CCC[C@H]3C(=O)N[C@@H](CO)C(=O)N[C@@H](CCCCN)C(=O)N[C@H](C(=O)N[C@@H](CC(=O)O)C(=O)N[C@@H](CC(C)C)C(=O)N3CCC[C@H]3C(=O)N[C@@H](CCCNC(=N)N)C(=O)O)C(C)C)C2=O)C(C)C)cc1)C(C)C (stereo partly shown) [LDC10BR] (I: Pteroyl-ERGDCKEFLHPSKVDLPR-OH / II: V[Cit][PABC][NMeV]V[Dil][Dolaproine]-X1; linker I:5-II:N via Hexanoyl(6-succinimido-3yl)) | 6.4 | 6.6 | 38.1 | comparable to the bi-ligand conjugate LDC10B | – | – | – |
| FITC-ACP-Lys (Folate)-OH [Folate-FITC] | – | – | – | – | enters KB cells | completely blocked | but not A375 cells |
